The assay concerns gastric PGE2 synthesis. Put plainly: Acute indomethacin-induced gastric toxicity in rats: gastric PGE2 synthesis. The format is in vivo, rat. Conditions: indomethacin 20 mg/kg p.o. As for the experimental part:
A study was conducted to determine whether GL1001 would inhibit acute NSAID (indomethacin)-induced gastric toxicity in a rat model (Wallace et al. (1998) Gastroenterol. 115:101-109). Several modes of treatment with GL1001 or vehicle were employed, which included administration via drinking water, oral administration and subcutaneous administration as shown in Table 4. Irrespective of the route of drug or vehicle administration, male Wistar rats were deprived of food for 16 h prior to oral administration of 20 mg/kg indomethacin (Sigma) or vehicle (5% w/v sodium bicarbonate; 1 ml/kg). Three hours later the rats were sacrificed and the severity of gastric damage was blindly scored. This involved measurement of the lengths (in mm) of all hemorrhagic erosions and summing these to give a “gastric damage score” for each stomach. Samples of the stomach were taken for measurement of prostaglandin E2 (PGE2) synthesis as described by Wallace et al. (1998), supra, and myeloperoxidase activity as described by Souza et al. (2003) Am. J. Physiol. 285:[…]-61. Myeloperoxidase is an enzyme found in all cells of mycloid origin, but particularly enriched within neutrophils. It is therefore used as a biochemical marker of granulocyte infiltration into tissue. Each group consisted of 6 rats. As a negative control, one group received vehicle pretreatments (in the drinking water and by oral gavage) and then received vehicle instead of indomethacin. […] [table] In the experiments where GL1001 (or vehicle) was added to drinking water, the rats were provided with the modified drinking water for 2 days prior to administration of indomethacin (or vehicle). This included the period when the rats were deprived of food. GL1001 was prepared in 0.1M citrate buffer before being added to the drinking water. Based on average water consumption by rats, this was aimed at providing a daily dose of GL1100 of 1200 mg/kg (water consumption was monitored for several days prior to initiation of the study). Oral or subcutaneous administration of GL1001 (or vehicle) was performed 30 minutes prior to administration of indomethacin. Data are expressed as mean±SEM. When two groups of data were compared, a Student's t-test was used. When more than two groups of data were compared, a one-way analysis of variance followed by the Newman-Keuls test was used. An associated probability of less than 5% was considered statistically significant.

As for `CC(C)C[C@H](N[C@@H](Cc1cncn1Cc1cc(Cl)cc(Cl)c1)C(=O)O)C(=O)O` [GL1001, (S,S)-2-[1-carboxy-2-[3-(3,5-dichlorobenzyl)-3H-imidazol-4-yl]-ethylamino]-4-methylpentanoic acid], the “Gastric PGE2 synthesis” value runs as follows: (Group A: GL1001 in drinking water, vehicle Group B 3.83 ± 0.98) 5.31 ± 1.54 ng/mg; (Group C: GL1001 p.o. and in drinking water, vehicle Group D 3.07 ± 0.55) 2.37 ± 0.51 ng/mg; (Group F: GL1001 s.c. and in drinking water, vehicle Group G 3.60 ± 0.32) 3.57 ± 0.59 ng/mg; (Group H: GL1001 p.o., vehicle Group I 6.08 ± 1.00) 4.44 ± 0.40 ng/mg.

For the origin of these results see patent US20100035848A1, “THERAPY FOR DISORDERS OF THE PROXIMAL DIGESTIVE TRACT” (priority 2008, published 2010).
